Results on 26 compounds are retold here after patent publication US11000491B2, “Amino-aryl-benzamide compounds and methods of use thereof” (HEPANOVA, INC., priority 2017, dated 2021).

Read-outs that look alike come from different tables or passages of the source.

Holding throughout (assay type): cell-based
For assay [1], the system named is Huh7 cells. In words: LD content in Huh7 cells pre-treated with insulin, Oil-Red-O staining, absorbance OD 540 nm. The settings on record: procedure of Example 3, read-out: LD content inhibition (EC50). As to the method:
FIG. 6. […] Spectrophotometric absorbance of untreated or HPN-01-treated Huh7 cells pre-incubated with 1 mM insulin is shown. LD contents were stained using Oil Red O, and measured by determining spectrophotometer absorbance under OD 540 nm.
Huh7 cells were mock treated or pre-treated with 1 mM insulin, and subsequently treated with indicated amounted of HPN-01.
The ability of each HPN-01 derivative obtained from the synthesis methods described above, to inhibit LD formation in hepatocytes, was tested using the procedure outlined in Example 3. The results of this analysis are shown below in Table 6 (second column).

Assay [2] has as its system SREBP-1. In words: SREBP-1 expression in cultured primary human hepatocytes. Particulars: procedure of Example 6, read-out: SREBP-1 mRNA inhibition (EC50). As to the method: (§1) FIG. 9. Effects of HPN-01 on the expression of SREBP-1 (master regulator of hepatic glucose metabolism and fatty acid synthesis) and SREBP-2 (master regulator of cholesterol homeostasis in cells) in cultured primary human hepatocytes.
(§2) Cultured primary human hepatocytes were treated with various concentrations of HPN-01, and the expression levels of SREBP-1 (master regulator of hepatic glucose metabolism and fatty acid synthesis) and SREBP-2 (master regulator of cholesterol homeostasis in cells) were subsequently determined.
(§3) The ability of each HPN-01 derivative obtained from the synthesis methods described above, to inhibit SREBP-1 and SREBP-2 mRNA expression in primary hepatocytes, was tested using the procedure outlined in Example 6. The results of this analysis are shown in Table 6 (third and fourth columns).

In assay [3] the test system is SREBP-2. In words: SREBP-2 expression in cultured primary human hepatocytes. Particulars: procedure of Example 6, read-out: SREBP-2 mRNA inhibition (EC50). Here is the method:
as §1, §2, §3

Setting [4] is: Homo sapiens, Huh-7, Huh7 cells.

Take `COc1cccc(NC(=O)c2cc(-c3ccc(Cl)cc3)cc(-c3ccc(S(N)(=O)=O)cc3)c2N)c1` [HPN-01619, 4′-amino-4-chloro-N-(3-methoxyphenyl)-4″-sulfamoyl-[1, 1′:3′,1″-terphenyl]-5′-carboxamide]: the EC50 amounted to 1.33 µM in assay [1] (setting [4]); 4.18 µM in assay [2] (Homo sapiens, Hepatocyte); 7.95 µM in assay [3] (Homo sapiens, Hepatocyte).
On to `NC(=O)c1cc(-c2ccc(Cl)cc2)cc(-c2ccc(N3CC=NC3=O)cc2)c1N` [HPN-01420, 4′-amino-4-chloro-4″-(2-oxo-2,5-dihydro-1H-imidazol-1-yl)-[1,1′:3′,1″-terphenyl]-5′-carboxamide], for which the EC50 in assay [1] (setting [4]) is 0.42 µM; in assay [2] (Homo sapiens, Hepatocyte), 2.14 µM; in assay [3] (Homo sapiens, Hepatocyte), 2.37 µM.
In the same order, the values of `NC(=O)c1cc(-c2ccc(Cl)cc2)cc(-c2ccc(S(N)(=O)=O)cc2)c1NCCO` [HPN-01531, 4-chloro-4′-((2-hydroxyethyl)amino)-4″-sulfamoyl-[1,1′:3′,1″-terphenyl]-5′-carboxamide] are 6.48 µM, 3.15 µM and 5.71 µM.
Consider `NC(=O)c1cc(-c2c[nH]c(Br)c2)cc(-c2ccc(S(N)(=O)=O)cc2)c1N` [HPN-01311, 2-amino-5-(5-bromo-1H-pyrrol-3-yl)-4′-sulfamoyl-[1,1′-biphenyl]-3-carboxamide], for which the 50% effective concentration (EC50) in assay [1] (setting [4]) is 2.02 µM; in assay [2] (Homo sapiens, Hepatocyte), 3.09 µM; in assay [3] (Homo sapiens, Hepatocyte), 5.59 µM.
For `NC(=O)c1cc(C2CCC(Br)C2)cc(-c2ccc(S(N)(=O)=O)cc2)c1N` (stereo not drawn) [HPN-01321, 2-amino-5-(3-bromocyclopentyl)-4′-sulfamoyl-[1,1′-biphenyl]-3-carboxamide], the half-maximal effective concentration (EC50) in assay [1] (setting [4]) was found to be 1.76 µM; in assay [2] (Homo sapiens, Hepatocyte), 3.06 µM; in assay [3] (Homo sapiens, Hepatocyte), 5.31 µM.
In the same order, the values of `Nc1c(C(=O)Nc2ccccc2)cc(-c2ccc(Br)cc2)cc1-c1ccc(S(N)(=O)=O)cc1` [HPN-01612, 4′-amino-4-bromo-N-phenyl-4″-sulfamoyl-[1,1′:3′,1″-terphenyl]-5′-carboxamide] are 0.64 µM, 3.11 µM and 5.48 µM.
In the same order, the values of `CCCC(=O)Nc1cccc(/C=C/c2cc(C(N)=O)c(N)c(-c3ccc(S(N)(=O)=O)cc3)c2)c1` [HPN-01112, (E)-2-amino-5-(3-butyramidostyryl)-4′-sulfamoyl-[1,1′-biphenyl]-3-carboxamide] are 0.65 µM, 2.03 µM and 1.36 µM.
In the case of `Nc1c(C(=O)NC2CC2)cc(-c2ccc(Br)cc2)cc1-c1ccc(S(N)(=O)=O)cc1` [HPN-01606, 4′-amino-4-bromo-N-cyclopropyl-4″-sulfamoyl-[1,1′:3′,1″-terphenyl]-5′-carboxamide], the half-maximal effective concentration (EC50) was 0.14 µM in assay [1] (setting [4]); 1.13 µM in assay [2] (Homo sapiens, Hepatocyte); 2.75 µM in assay [3] (Homo sapiens, Hepatocyte).
Regarding “(E)-2-amino-5-(3-((4-methoxyphenyl)amino)-3-oxoprop-1-en-1-yl)-4′-sulfamoyl-[1,1′-biphenyl]-3-carboxamide [HPN-01128]”, the EC50 in assay [1] (Huh7 cells) was determined as 0.89 µM; in assay [2], 2.4 µM; in assay [3] it was 3.47 µM.
Turning to `NC(=O)c1cc(C#CCO)cc(-c2ccc(S(N)(=O)=O)cc2)c1N` [HPN-01201, 2-amino-5-(3-hydroxyprop-1-ynyl)-4′-sulfamoylbiphenyl-3-carboxamide], the EC50 in assay [1] (setting [4]) came to 1.2 µM; in assay [2] (Homo sapiens, Hepatocyte) it was 3.16 µM; in assay [3] (Homo sapiens, Hepatocyte), 6.85 µM.
In the same order, the values of `NCC(=O)Nc1c(C(N)=O)cc(-c2ccc(Br)cc2)cc1-c1ccc(S(N)(=O)=O)cc1` [HPN-01527, 4′-(2-aminoacetamido)-4-bromo-4″-sulfamoyl-[1,1′:3′,1″-terphenyl]-5′-carboxamide] are 2.6 µM, 5.25 µM and 5.69 µM.
In the same order, the values of `Cc1ccccc1C(=O)OCC#Cc1cc(C(N)=O)c(N)c(-c2ccc(S(N)(=O)=O)cc2)c1` [HPN-01212, 3-(6-amino-5-carbamoyl-4′-sulfamoyl-[1,1′-biphenyl]-3-yl)prop-2-yn-1-yl 2-methylbenzoate] are 0.75 µM, 2.27 µM and 1.85 µM.
As for `NC(=O)c1cc(Oc2ccc(Cl)cc2)cc(-c2ccc(S(N)(=O)=O)cc2)c1N` [HPN-01313, 2-amino-5-(4-chlorophenoxy)-4′-sulfamoyl-[1,1′-biphenyl]-3-carboxamide], the EC50 in assay [1] (setting [4]) came out at 1.76 µM; in assay [2] (Homo sapiens, Hepatocyte), 5.51 µM; in assay [3] (Homo sapiens, Hepatocyte) it was 9.41 µM.
In the same order, the values of `NC(=O)c1cc(/C=C/c2ccccc2Cl)cc(-c2ccc(S(N)(=O)=O)cc2)c1N` [HPN-01108, (E)-2-amino-5-(2-chlorostyryl)-4′-sulfamoyl-[1,1′-biphenyl]-3-carboxamide] are 0.55 µM, 2.59 µM and 4.67 µM.
Turning to “furan-2-ylmethyl (E)-3-(6-amino-5-carbamoyl-4′-sulfamoyl-[1,1′-biphenyl]-3-yl)acrylate [HPN-01124]”, the EC50 is 0.67 µM in assay [1] (Huh7 cells), 1.86 µM in assay [2] and 3.25 µM in assay [3].
In the case of `NC(=O)c1cc(-c2ccc(Cl)cc2)cc(-c2ccc(S(N)(=O)=O)cc2)c1NCCc1ccccc1` [HPN-01534, 4-chloro-4′-(phenethylamino)-4″-sulfamoyl-[1,1′:3′,1″-terphenyl]-5′-carboxamide], the concentration for a half-maximal effect (EC50) is 1.11 µM in assay [1] (setting [4]); 2.92 µM in assay [2] (Homo sapiens, Hepatocyte); 6.79 µM in assay [3] (Homo sapiens, Hepatocyte).
In the case of `NC(=O)c1cc(-c2ccc(Cl)cc2)cc(Sc2ccc(S(N)(=O)=O)cc2)c1N` [HPN-01403], the EC50 was determined as 0.36 µM in assay [1] (Huh7 cells), 1.96 µM in assay [2] and 3.09 µM in assay [3].
On to `NC(=O)c1cc(-c2ccc(Br)cc2)cc(-c2ccc(S(N)(=O)=O)cc2)c1NC(=O)C1CC1` [HPN-01525, 4-bromo-4′-(cyclopropanecarboxamido)-4″-sulfamoyl-[1,1′:3′,1″-terphenyl]-5′-carboxamide], for which the EC50 stood at 1.45 µM in assay [1] (setting [4]); 5.61 µM in assay [2] (Homo sapiens, Hepatocyte); 10 µM in assay [3] (Homo sapiens, Hepatocyte).
In the same order, the values of `NC(=O)c1cc(Nc2cccc(Cl)c2)cc(-c2ccc(S(N)(=O)=O)cc2)c1N` [HPN-01315, 2-amino-5-((3-chlorophenyl)amino)-4′-sulfamoyl-[1,1′-biphenyl]-3-carboxamide] are 2.61 µM, 7.72 µM and 14 µM.
Regarding `CNC(=O)c1cc(-c2ccc(Br)cc2)cc(-c2ccc(S(N)(=O)=O)cc2)c1N` [HPN-01602, 4′-amino-4-bromo-N-methyl-4″-sulfamoyl-[1,1′:3′,1″-terphenyl]-5′-carboxamide], the EC50 came out at 2.32 µM in assay [1] (setting [4]); 3.32 µM in assay [2] (Homo sapiens, Hepatocyte); 4.73 µM in assay [3] (Homo sapiens, Hepatocyte).
As to `CCCNS(=O)(=O)c1cccc(Oc2cc(-c3ccc(Cl)cc3)cc(C(N)=O)c2N)c1` [HPN-01411, 4-amino-4′-chloro-5-(3-(N-propylsulfamoyl)phenoxy)-[1,1′-biphenyl]-3-carboxamide], the EC50 in assay [1] (setting [4]) turned out to be 0.94 µM; in assay [2] (Homo sapiens, Hepatocyte), 1.59 µM; in assay [3] (Homo sapiens, Hepatocyte), 2.84 µM.
In the same order, the values of `NC(=O)c1cc(-c2ccc(Cl)cc2)cc(-c2ccc(S(N)(=O)=O)cc2)c1NC(=O)c1cccnc1` [HPN-01529, N-(5′-carbamoyl-4-chloro-4″-sulfamoyl-[1,1′:3′,1″-terphenyl]-4′-yl)nicotinamide] are 1.67 µM, 3.09 µM and 18.8 µM.
In the same order, the values of `COC(=O)c1cccc(Oc2cc(C(N)=O)c(N)c(-c3ccc(S(N)(=O)=O)cc3)c2)c1` [HPN-01320, methyl 3-((6-amino-5-carbamoyl-4′-sulfamoyl-[1,1′-biphenyl]-3-yl)oxy)benzoate] are 0.69 µM, 1.1 µM and 2.16 µM.
In the same order, the values of `NC(=O)c1cc(-c2ccc(Br)cc2)cc(Oc2cccc(S(N)(=O)=O)c2)c1N` [HPN-01415, 4-amino-4′-bromo-5-(3-sulfamoylphenoxy)-[1, 1′-biphenyl]-3-carboxamide] are 0.66 µM, 2.35 µM and 6.45 µM.
Turning to `NC(=O)c1cc(-c2ccc(Cl)cc2)cc(OCc2ccc(S(N)(=O)=O)cc2)c1N` [HPN-01424, 4-amino-4′-chloro-5-((4-sulfamoylbenzyl)oxy)-[1,1′-biphenyl]-3-carboxamide], the EC50 in assay [1] (setting [4]) was determined as 1.45 µM; in assay [2] (Homo sapiens, Hepatocyte), 2.69 µM; in assay [3] (Homo sapiens, Hepatocyte), 4.31 µM.
As to `Nc1c(C(=O)Nc2cccc(F)c2)cc(-c2ccc(Br)cc2)cc1-c1ccc(S(N)(=O)=O)cc1` [HPN-01614, 4′-amino-4-bromo-N-(3-fluorophenyl)-4″-sulfamoyl-[1,1′:3′,1″-terphenyl]-5′-carboxamide], the EC50 in assay [1] (setting [4]) amounted to 0.82 µM; in assay [2] (Homo sapiens, Hepatocyte) it was 5.65 µM; in assay [3] (Homo sapiens, Hepatocyte) it was 8.6 µM.

A word on the EC50: it is the concentration needed to bring the measured effect to its halfway point.
